Reference: US10774083B2, “Heterocyclic amide compound” (TAKEDA PHARMACEUTICAL COMPANY LIMITED, priority 2016, dated 2020)

Target: T1, human PRS protein (His-Avi-hEPRS (998-1512)) (Homo sapiens, UniProt P07814)
T1 construct: to construct His-Avi-hEPRS (998-1512) expression plasmid; His tag (N); Avi tag (N); TEV cleavage site (ENLYFQG, then S; inferred from the forward primer hEPRS-TEV-NheF) (N); made in house; host or cells: E. coli BL21(DE3)
T1 sequence (P07814 998-1512 limits assumed): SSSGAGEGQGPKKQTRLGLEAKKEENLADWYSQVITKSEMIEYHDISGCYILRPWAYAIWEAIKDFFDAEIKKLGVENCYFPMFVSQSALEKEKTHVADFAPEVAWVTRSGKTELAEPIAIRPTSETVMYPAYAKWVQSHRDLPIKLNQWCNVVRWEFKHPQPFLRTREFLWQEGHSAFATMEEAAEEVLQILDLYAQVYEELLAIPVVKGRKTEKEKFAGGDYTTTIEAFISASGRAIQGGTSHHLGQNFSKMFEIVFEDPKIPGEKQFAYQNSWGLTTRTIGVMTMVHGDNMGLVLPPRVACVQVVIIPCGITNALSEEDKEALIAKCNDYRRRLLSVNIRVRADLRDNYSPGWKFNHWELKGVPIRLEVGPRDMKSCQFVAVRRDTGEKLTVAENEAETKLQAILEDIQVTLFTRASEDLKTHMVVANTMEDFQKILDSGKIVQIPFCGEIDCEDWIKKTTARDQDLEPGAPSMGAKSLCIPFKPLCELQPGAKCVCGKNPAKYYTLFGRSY
Assay: PRS inhibitory activity ([32P]pyrophosphate exchange enzyme assay)
Type: biochemical
Conditions: 300 nM test compound; 0.3 µM
Procedure: The PRS inhibitory activity of the compounds of the present invention was evaluated by the following method.
An expression plasmid of Catalytic Domain of human EPRS was obtained by PCR using human skeletal muscle cDNA Library (Takara Bio Inc.) as a template and 2 kinds of Primers 5′-[…]-3′ (hEPRS-TEV-NheF) (SEQ ID NO: 1) and 5′-[…]-3′ (hEPRS-St-Not-R) (SEQ ID NO: 2). PCR was performed using PrimeStar GXL DNA Polymerase (Takara Bio Inc.) and included (1) 98° C., 1 min, (2) 35 cycles of 98° C., 10 sec, 65° C., 10 sec, 72° C., 1 min, and (3) reaction at 72° C., 1 min. This was cleaved with Nhe I and Not I (Takara Bio Inc.) and inserted using Ligation High (TOYOBO CO., LTD.) into the Nhe I/Not I site of pET21a (Novagen) with His-Avitag inserted thereinto. This was introduced into ECOS JM109 (NIPPON GENE CO., LTD.) to construct His-Avi-hEPRS (998-1512) expression plasmid.
Recombinant human PRS protein was prepared by transforming the His-Avi-hEPRS (998-1512) expression plasmid prepared above into ECOS Competent E. coli BL21(DE3) (NIPPON GENE CO., LTD.). Escherichia coli obtained by transformation was inoculated into 300 mL of LB medium (1% peptone, 0.5% yeast extract, 0.5% sodium chloride, 0.01% ampicillin) and cultured at 30° C. for 16 hr. The obtained culture medium was transferred into a jar culture tank charged with 6 L of the main fermentation medium (0.3% potassium dihydrogen phosphate, 0.6% disodium hydrogen phosphate, 0.1% ammonium chloride, 0.05% sodium chloride, 0.024% magnesium sulfate, 0.02% NEWPOL LB-625, 1.5% sorbitol, 1.5% casamino acid, 0.5% yeast extract, 0.01% ampicillin) and culturing was started at 37° C., quantity of airflow 5 L/min, stirring rotating speed 400 rpm. At the time point when the turbidity of the culture medium reached about 550 Klett units, the culture temperature was lowered to 16° C., isopropyl-β-D-thiogalactopyranoside (IPTG) was added to the final concentration 0.1 mM, and culturing was performed for another 16 hr to induce expression of human PRS. After completion of culturing, the culture medium was centrifuged at 5,000 rpm for 10 min. The obtained human PRS expressing Escherichia coli was suspended in a buffer containing 50 mM Tris-HCl (pH 8.0), 150 mM NaCl, 1 mM DTT, 5 U/ml Benzonase, 20 mM Imidazole and sonicated using Sonifier (BRANSON). The homogenate was centrifuged (33,000×G, 60 min, Beckman Coulter), the obtained supernatant was subjected to adsorption by passage through Ni-NTA Superflow (QIAGEN) column equilibrated in advance with 50 mM Tris-HCl (pH 8.0), 300 mM NaCl, 1 mM DTT, and elution was performed with a buffer containing 50 mM Tris-HCl (pH 8.0), 300 mM NaCl, 1 mM DTT, 250 mM Imidazole. Furthermore, gel filtration was performed using Superdex200 pg column equilibrated in advance with a buffer containing 50 mM Tris-HCl (pH 8.0), 150 mM NaCl, 1 mM DTT, 10% glycerol to give purified human PRS protein. The protein concentration was measured using BCA Protein Assay Kit (PIERCE) and BSA as the standard.
A test compound was dissolved in 5 μL of an assay buffer (50 mM Tris-HCl (pH 7.5), 20 mM KCl, 1 mM DTT, 0.01% Tween 20) and incubated for 60 min with 5 μL of 40 nM human PRS protein dissolved in the assay buffer containing 40 mM MgCl2. An enzyme reaction of the human PRS protein was started by adding 10 μL of a substrate solution containing 300 μM ATP, 160 μM L-Proline, 400 μM pyrophosphate, [^32P]pyrophosphate (PerkinElmer) prepared to 1 MBq/mL. After incubation at room temperature for 30 min, the reaction was discontinued by adding 50 μL of discontinuation/washing solution (1M HCl, 200 mM sodium pyrophosphate) to the reaction mixture. The reaction solution was transferred to a filter plate (Merck Millipore, Billerica, Mass.) previously added with 200 μL of charcoal solution (0.5% HCl solution containing 10% charcoal (w/v)). […]

Row | inhibitory rate (%) of PRS [%] | Structure (SMILES)
1 | 99 | Cn1cc(-c2cc(F)cc(CNC(=O)c3ncnc4nc(C5COCCO5)[nH]c34)c2)cn1 (stereo not drawn) [Example 33, 8-(1,4-dioxan-2-yl)-N-(3-fluoro-5-(1-methyl-1H-pyrazol-4-yl)benzyl)-7H-purine-6-carboxamide]
2 | 101 | Cn1cc(-c2cc(F)cc(CNC(=O)c3ncnc4nc(C5COCCO5)[nH]c34)c2)cn1 (stereo not drawn) [Example 34, 8-(1,4-dioxan-2-yl)-N-(3-fluoro-5-(1-methyl-1H-pyrazol-4-yl)benzyl)-7H-purine-6-carboxamide]

Same assay, conditions: 300 nM test compound; read-out: inhibitory rate (%) of PRS

Row | Structure (SMILES) | inhibition at 0.3 µM [%]
3 | COc1c(F)cc(-c2cnn(C)c2)cc1CNC(=O)c1ncnc2nc(C3CCCC3)n(C)c12 [Example 6, 8-cyclopentyl-N-(3-fluoro-2-methoxy-5-(1-methyl-1H-pyrazol-4-yl)benzyl)-7-methyl-7H-purine-6-carboxamide] | 79
4 | Cn1cc(-c2cc(F)cc(CNC(=O)c3nc(Cl)nc4nc(C5CCCC5)[nH]c34)c2)cn1 [Example 12, 2-chloro-8-cyclopentyl-N-(3-fluoro-5-(1-methyl-1H-pyrazol-4-yl)benzyl)-7H-purine-6-carboxamide] | 77
5 | Cc1nc(C(=O)NCc2cc(F)cc(-c3cnn(C)c3)c2)c2[nH]c(C3CCCC3)nc2n1 [Example 13, 8-cyclopentyl-N-(3-fluoro-5-(1-methyl-1H-pyrazol-4-yl)benzyl)-2-methyl-7H-purine-6-carboxamide] | 86
6 | Cn1ncc2cccc(CNC(=O)c3ncnc4nc(C5CCCC5)n(C)c34)c21 [Example 21, 8-cyclopentyl-7-methyl-N-((1-methyl-1H-indazol-7-yl)methyl)-7H-purine-6-carboxamide] | 92
7 | O=C(NCc1cccc(-c2ccccc2)c1)c1nccc2nc(C3CCCC3)[nH]c12 [Example 83, N-(biphenyl-3-ylmethyl)-2-cyclopentyl-3H-imidazo[4,5-c]pyridine-4-carboxamide] | 98
8 | Cn1ncc2c(CNC(=O)c3nccc4nc(C5CCCC5)[nH]c34)cccc21 [Example 93, 2-cyclopentyl-N-((1-methyl-1H-indazol-4-yl)methyl)-3H-imidazo[4,5-c]pyridine-4-carboxamide] | 91
9 | Cn1cc(-c2cc(F)cc(CNC(=O)c3nccc4nc(C5CCCC5)n(C5CC5)c34)c2)cn1 [Example 108, 2-cyclopentyl-3-cyclopropyl-N-(3-fluoro-5-(1-methyl-1H-pyrazol-4-yl)benzyl)-3H-imidazo[4,5-c]pyridine-4-carboxamide] | 102
10 | Cn1cc(-c2cc(F)cc(CNC(=O)c3nccc4nc(C5CCCC5)n(CC5CC5)c34)c2)cn1 [Example 114, 2-cyclopentyl-3-(cyclopropylmethyl)-N-(3-fluoro-5-(1-methyl-1H-pyrazol-4-yl)benzyl)-3H-imidazo[4,5-c]pyridine-4-carboxamide] | 101
11 | Cn1cc(-c2cc(F)cc(CNC(=O)c3nccc4nc(C5CCCC5)n(Cc5ccccc5)c34)c2)cn1 [Example 123, 3-benzyl-2-cyclopentyl-N-(3-fluoro-5-(1-methyl-1H-pyrazol-4-yl)benzyl)-3H-imidazo[4,5-c]pyridine-4-carboxamide] | 69
12 | Cn1cc(-c2cc(CNC(=O)c3nccc4nc(C5CCCC5)n(C)c34)ccn2)cn1 [Example 136, 2-cyclopentyl-3-methyl-N-((2-(1-methyl-1H-pyrazol-4-yl)pyridin-4-yl)methyl)-3H-imidazo[4,5-c]pyridine-4-carboxamide] | 77
13 | Cn1cc(-c2cc(F)cc(CNC(=O)c3cc(N4CC[C@@](C#N)(C5CC5)C4=O)ccn3)c2)cn1 [Example 149, 4-((3S)-3-cyano-3-cyclopropyl-2-oxopyrrolidin-1-yl)-N-(3-fluoro-5-(1-methyl-1H-pyrazol-4-yl)benzyl)pyridine-2-carboxamide] | 95
14 | Cn1cc(-c2cc(F)cc(CNC(=O)c3cc(N4CC[C@@](C#N)(C5CC5)C4=O)ccn3)c2)ccc1=O [Example 150, 4-((3S)-3-cyano-3-cyclopropyl-2-oxopyrrolidin-1-yl)-N-(3-fluoro-5-(1-methyl-6-oxo-1,6-dihydropyridin-3-yl)benzyl)pyridine-2-carboxamide] | 87

Continued, values first:

Row | inhibition at 0.3 µM [%] | Structure (SMILES)
15 | 101 | Cn1cc(-c2cc(F)cc(CNC(=O)c3ncnc4nc(C5CCS(=O)(=O)C5)[nH]c34)c2)cn1 (stereo not drawn) [Example 28, 8-(1,1-dioxidotetrahydrothiophen-3-yl)-N-(3-fluoro-5-(1-methyl-1H-pyrazol-4-yl)benzyl)-7H-purine-6-carboxamide]
16 | 98 | O=C(NCc1cccc(Br)c1)c1nccc2nc(C3CCCC3)[nH]c12 [Example 82, N-(3-bromobenzyl)-2-cyclopentyl-3H-imidazo[4,5-c]pyridine-4-carboxamide]
17 | 97 | Cn1c(C2CCCC2)nc2ccnc(C(=O)NCc3ccccc3Cl)c21 [Example 85, N-(2-chlorobenzyl)-2-cyclopentyl-3-methyl-3H-imidazo[4,5-c]pyridine-4-carboxamide]
18 | 74 | CC1(c2nc3ccnc(C(=O)NCc4ccccc4Cl)c3[nH]2)CCCC1 [Example 87, N-(2-chlorobenzyl)-2-(1-methylcyclopentyl)-3H-imidazo[4,5-c]pyridine-4-carboxamide]
19 | 96 | CC(C)c1nc2ccnc(C(=O)NCc3cc(F)cc(-c4cnn(C)c4)c3)c2[nH]1 [Example 99, N-(3-fluoro-5-(1-methyl-1H-pyrazol-4-yl)benzyl)-2-isopropyl-3H-imidazo[4,5-c]pyridine-4-carboxamide]
20 | 78 | Cn1cc(-c2ccnc(CNC(=O)c3nccc4nc(C5CCCC5)n(C)c34)n2)cn1 [Example 146, 2-cyclopentyl-3-methyl-N-((4-(1-methyl-1H-pyrazol-4-yl)pyrimidin-2-yl)methyl)-3H-imidazo[4,5-c]pyridine-4-carboxamide]
21 | 85 | Cn1cc(-c2csc(CNC(=O)c3cc(N4CC[C@@](C#N)(C5CC5)C4=O)ccn3)c2)cn1 [Example 157, 4-((3S)-3-cyano-3-cyclopropyl-2-oxopyrrolidin-1-yl)-N-((4-(1-methyl-1H-pyrazol-4-yl)-2-thienyl)methyl)pyridine-2-carboxamide]
